The term IC50 denotes the concentration at which inhibition is half-maximal.

In this assay the target is T1, Human PPARα (Homo sapiens, UniProt Q07869).
T1 construct: host or cells: proprietary non-human mammalian cells
T1 sequence (Q07869 1-468): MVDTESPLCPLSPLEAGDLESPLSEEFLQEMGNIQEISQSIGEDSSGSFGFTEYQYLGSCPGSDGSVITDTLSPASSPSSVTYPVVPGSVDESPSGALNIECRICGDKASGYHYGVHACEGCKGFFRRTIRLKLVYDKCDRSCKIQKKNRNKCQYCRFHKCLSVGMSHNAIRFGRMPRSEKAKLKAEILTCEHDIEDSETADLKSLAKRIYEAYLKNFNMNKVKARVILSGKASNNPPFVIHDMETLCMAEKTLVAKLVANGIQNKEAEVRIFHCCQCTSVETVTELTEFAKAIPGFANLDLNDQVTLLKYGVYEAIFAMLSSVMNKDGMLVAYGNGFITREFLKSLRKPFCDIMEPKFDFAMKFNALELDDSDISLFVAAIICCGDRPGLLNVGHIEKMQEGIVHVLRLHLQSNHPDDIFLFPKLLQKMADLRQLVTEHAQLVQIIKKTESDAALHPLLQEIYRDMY
Nature of the assay: Human PPARα Reporter Assay (luciferase). Format: cell-based. The following applies: antagonist activity, luciferase reporter cells, overnight incubation; read-out: Human PPARα Reporter Assay-Luciferase IC50. How it is done: Human PPARα Reporter Assay
The screening of test compounds for agonist or antagonist activities against human PPARα receptors was performed using a commercial kit, Human PPARα Reporter Assay System (Indigo Biosciences, Cat. #IB00111).
This nuclear receptor assay system utilizes proprietary non-human mammalian cells engineered to provide constitutive, high-level expression of Human PPARα. Because these cells incorporate a PPARα-responsive luciferase reporter gene, quantifying expressed luciferase activity provides a sensitive surrogate measure of PPARα activity in the treated cells. The primary application of this reporter assay system is in the screening of test samples to quantify any functional activity, either agonist or antagonist, that they may exert against human PPARα. […] Briefly, the reporter cells are dispensed into wells of the assay plate and then immediately dosed with test compounds. Following an overnight incubation, the treatment media are discarded and Luciferase Detection Reagent (LDR) is added. The intensity of light emission from the ensuing luciferase reaction provides a sensitive measure that is directly proportional to the relative level of PPARα activation in the reporter cells.
(Reporter assays use an easily measured gene product as a stand-in for the process of interest.)
`CCn1c(CCCc2cccc(-c3cccc(CC(=O)O)c3)c2)nn(Cc2ccc(C(C)(C)C)cc2)c1=O` [Example 1, 2-(3′-(3-(1-(4-(tert-Butyl)benzyl)-4-ethyl-5-oxo-4,5-dihydro-1H-1,2,4-triazol-3-yl)propyl)-[1,1′-biphenyl]-3-yl)acetic acid]: the IC50 worked out at 346 nM. To `CCn1c(CCCc2cccc(-c3ccc(CC(=O)O)cc3)c2)nn(Cc2ccc(C(C)(C)C)cc2)c1=O` [Example 2, 2-(3′-(3-(1-(4-(tert-Butyl)benzyl)-4-ethyl-5-oxo-4,5-dihydro-1H-1,2,4-triazol-3-yl)propyl)-[1,1′-biphenyl]-4-yl)acetic acid] belongs 324 nM; to `CCn1c(CCCc2cccc(-c3cccc(C(=O)O)c3)c2)nn(Cc2ccc(C(C)(C)C)cc2)c1=O` [Example 3, 3′-(3-(1-(4-(tert-Butyl)benzyl)-4-ethyl-5-oxo-4,5-dihydro-1H-1,2,4-triazol-3-yl)propyl)-[1,1′-biphenyl]-3-carboxylic acid], 1330 nM; to `CCn1c(CCCc2cccc(-c3ccc(C(=O)O)cc3)c2)nn(Cc2ccc(C(C)(C)C)cc2)c1=O` [Example 4, 3′-(3-(1-(4-(tert-Butyl)benzyl)-4-ethyl-5-oxo-4,5-dihydro-1H-1,2,4-triazol-3-yl)propyl)-[1,1′-biphenyl]-4-carboxylic acid], 110 nM. The figure for `CCOc1ccc(-c2cccc(CCCc3nn(Cc4ccc(C(C)(C)C)cc4)c(=O)n3CC)c2)cc1C1(C(=O)O)CC1` [Example 5, 1-(3′-(3-(1-(4-(tert-Butyl)benzyl)-4-ethyl-5-oxo-4,5-dihydro-1H-1,2,4-triazol-3-yl)propyl)-4-ethoxy-[1,1′-biphenyl]-3-yl)cyclopropanecarboxylic acid] is 137 nM.

As for `CCn1c(CCCc2cccc(-c3cccc(C4(C(=O)O)CC4)c3)c2)nn(Cc2ccc(C(C)(C)C)cc2)c1=O` [Example 7, 1-(3′-(3-(1-(4-(tert-Butyl)benzyl)-4-ethyl-5-oxo-4,5-dihydro-1H-1,2,4-triazol-3-yl)propyl)-[1,1′-biphenyl]-3-yl)cyclopropanecarboxylic acid], the IC50 was 77 nM.

In the case of `CCn1c(CCCc2cccc(-c3ccc(C4(C(=O)O)CC4)cc3)c2)nn(Cc2ccc(C(C)(C)C)cc2)c1=O` [Example 8, 1-(3′-(3-(1-(4-(tert-Butyl)benzyl)-4-ethyl-5-oxo-4,5-dihydro-1H-1,2,4-triazol-3-yl)propyl)-[1,1′-biphenyl]-4-yl)cyclopropanecarboxylic acid], the IC50 came to 487 nM. The figure for `CCn1c(CCCc2cccc(-c3ccc(OC)c(C(=O)O)c3)c2)nn(Cc2ccc(C(C)(C)C)cc2)c1=O` [Example 9, 3′-(3-(1-(4-(tert-Butyl)benzyl)-4-ethyl-5-oxo-4,5-dihydro-1H-1,2,4-triazol-3-yl)propyl)-4-methoxy-[1,1′-biphenyl]-3-carboxylic acid] is 548 nM.

As for `CCOc1ccc(-c2cccc(CCCc3nn(Cc4ccc(C(C)(C)C)cc4)c(=O)n3CC)c2)cc1C(=O)O` [Example 10, 3′-(3-(1-(4-(tert-Butyl)benzyl)-4-ethyl-5-oxo-4,5-dihydro-1H-1,2,4-triazol-3-yl)propyl)-4-ethoxy-[1,1′-biphenyl]-3-carboxylic acid], the IC50 amounted to 211 nM. On to `CCCOc1ccc(-c2cccc(CCCc3nn(Cc4ccc(C(C)(C)C)cc4)c(=O)n3CC)c2)cc1CC(=O)O` [Example 11, 2-(3′-(3-(1-(4-(tert-Butyl)benzyl)-4-ethyl-5-oxo-4,5-dihydro-1H-1,2,4-triazol-3-yl)propyl)-4-propoxy-[1,1′-biphenyl]-3-yl)acetic acid], for which the IC50 is 48 nM. As to `CCn1c(CCCc2cccc(-c3ccc(NS(=O)(=O)c4ccccc4)cn3)c2)nn(Cc2ccc(C(C)(C)C)cc2)c1=O` [Example 12, N-(6-(3-(3-(1-(4-(tert-Butyl)benzyl)-4-ethyl-5-oxo-4,5-dihydro-1H-1,2,4-triazol-3-yl)propyl)phenyl)pyridin-3-yl)benzenesulfonamide], the IC50 came out at 302 nM.

Regarding `CCn1c(CCCc2cccc(-c3ccc(OC)c(CC(=O)O)c3)c2)nn(Cc2ccc(C(C)(C)C)cc2)c1=O` [Example 13, 2-(3′-(3-(1-(4-(tert-Butyl)benzyl)-4-ethyl-5-oxo-4,5-dihydro-1H-1,2,4-triazol-3-yl)propyl)-4-methoxy-[1,1′-biphenyl]-3-yl)acetic acid], the IC50 was 197 nM. The figure for `CCn1c(CCCc2cccc(-c3ccc(C)c(C4(C(=O)O)CC4)c3)c2)nn(Cc2ccc(C(C)(C)C)cc2)c1=O` [Example 14, 1-(3′-(3-(1-(4-(tert-Butyl)benzyl)-4-ethyl-5-oxo-4,5-dihydro-1H-1,2,4-triazol-3-yl)propyl)-4-methyl-[1,1′-biphenyl]-3-yl)cyclopropanecarboxylic acid] is 234 nM; for `CCn1c(CCCc2cccc(-c3ccc(OCc4ccccc4)c(CC(=O)O)c3)c2)nn(Cc2ccc(C(C)(C)C)cc2)c1=O` [Example 15, 2-(4-(Benzyloxy)-3′-(3-(1-(4-(tert-butyl)benzyl)-4-ethyl-5-oxo-4,5-dihydro-1H-1,2,4-triazol-3-yl)propyl)-[1,1′-biphenyl]-3-yl)acetic acid] it is 122 nM. For `CCn1c(CCCc2cccc(-c3ccc(OCC4CC4)c(CC(=O)O)c3)c2)nn(Cc2ccc(C(C)(C)C)cc2)c1=O` [Example 16, 2-(3′-(3-(1-(4-(tert-Butyl)benzyl)-4-ethyl-5-oxo-4,5-dihydro-1H-1,2,4-triazol-3-yl)propyl)-4-(cyclopropylmethoxy)-[1,1′-biphenyl]-3-yl)acetic acid], the IC50 came to 141 nM. Regarding `CCn1c(CCCc2cccc(-c3ccc(F)c(CC(=O)O)c3)c2)nn(Cc2ccc(C(C)(C)C)cc2)c1=O` [Example 17, 2-(3′-(3-(1-(4-(tert-Butyl)benzyl)-4-ethyl-5-oxo-4,5-dihydro-1H-1,2,4-triazol-3-yl)propyl)-4-fluoro-[1,1′-biphenyl]-3-yl)acetic acid], the IC50 worked out at 83 nM. To `CCOc1ccc(CC(=O)O)cc1-c1cccc(CCCc2nn(Cc3ccc(C(C)(C)C)cc3)c(=O)n2CC)c1` [Example 18, 2-(3′-(3-(1-(4-(tert-Butyl)benzyl)-4-ethyl-5-oxo-4,5-dihydro-1H-1,2,4-triazol-3-yl)propyl)-6-ethoxy-[1,1′-biphenyl]-3-yl)acetic acid] belongs 750 nM. To `CCCOc1ccc(-c2cccc(CCCc3nn(Cc4ccc(C(C)(C)C)cc4)c(=O)n3CC)c2)cc1C(=O)O` [Example 19, 3′-(3-(1-(4-(tert-Butyl)benzyl)-4-ethyl-5-oxo-4,5-dihydro-1H-1,2,4-triazol-3-yl)propyl)-4-propoxy-[1,1′-biphenyl]-3-carboxylic acid] belongs 119 nM. Turning to `CCn1c(CCCc2cccc(-c3cccc(CNS(=O)(=O)c4ccccc4)c3)c2)nn(Cc2ccc(C(C)(C)C)cc2)c1=O` [Example 20, N-((3′-(3-(1-(4-(tert-Butyl)benzyl)-4-ethyl-5-oxo-4,5-dihydro-1H-1,2,4-triazol-3-yl)propyl)-[1,1′-biphenyl]-3-yl)methyl)benzenesulfonamide], the IC50 stood at 896 nM. To `CCn1c(CCCc2cccc(-c3ccc(OC)c(CCC(=O)O)c3)c2)nn(Cc2ccc(C(C)(C)C)cc2)c1=O` [Example 21, 3-(3′-(3-(1-(4-(tert-Butyl)benzyl)-4-ethyl-5-oxo-4,5-dihydro-1H-1,2,4-triazol-3-yl)propyl)-4-methoxy-[1,1′-biphenyl]-3-yl)propanoic acid] belongs 610 nM.

The values above are taken from US9676754B2, “Triazolone compounds and uses thereof” (Inception 2, Inc., priority 2012, dated 2017).
